Laboratory results as given in US20140309300A1, “Bicyclic Labdane Diterpenes for Use in the Treatment of TRPC6 Associated Diseases” (UNIVERSITAET LEIPZIG, priority 2011, published 2014).

Experiments:
human TRPM3 = biological target: T1, human TRPM3 (Homo sapiens, UniProt Q9HCF6); assay: Specificity test, calcium influx in hTRPM3 HEK293 cells; assay type: cell-based; conditions: FIG. 1
T1 construct: expressed in transfected cells; host or cells: HEK293 (line hTRPM3)
Description: (§1) HEK293 (ATCC CRL-1573) cells were grown in Earle's Minimum Essential Medium (MEM) supplemented with 10 Vol.-% fetal calf serum, 2 mM (mmol/l) L-glutamine, 100 units/ml penicillin and 0.1 mg/ml streptomycin. Cells were seeded in 35-mm culture dishes, grown for 24 h, and transfected at 80% confluence with 2 μg of plasmid DNA encoding a C-terminally YFP-tagged human TRPC6 and 4 μl of Fugene HD reagent (Roche) in 100 μl serum-free medium. To select stably transfected HEKhTRPC6-YFP clones, 1 mg/ml geneticin (G418) was added to the medium. […] To verify functional expression, different clones were isolated and tested by single-cell [Ca^2+]i imaging experiments. […]
(§2) To assess the effect of bicyclic labdane diterpenes on calcium transport via TRP channels, larixol and larixol acetate was added to cell lines from example 1. Blocking of the respective TRP channel was determined by determining increases in [Ca^2+]i in suspensions. To activate the TRP channels, an activator of the respective channel was added, and changes in fluorescence intensity of intracellularly loaded fluo-4 was determined with a multiwell plate reader device (Polarstar Omega, BMG Labtech). For HEKrTRPV1 cells, assessment of activation was performed by monitoring the intracellular acidification, which results in fluorescence loss of co-expressed YFP. […]

other TRP channels = assay: Specificity tests in cell lines overexpressing other TRP channels; assay type: cell-based; conditions: FIG. 1
Description: as §1, §2

rat TRPV1 = biological target: T2, rat TRPV1 (Rattus norvegicus, UniProt O35433); assay: Specificity test in HEKrTRPV1 cells (intracellular acidification, YFP fluorescence loss); assay type: cell-based; conditions: activator 2 μM capsaicin; FIG. 1
T2 construct: expressed in transfected cells; host or cells: HEK293 (line rTRPV1)
Description: as §1, §2

human TRPM8 = biological target: T3, human TRPM8 (Homo sapiens, UniProt Q7Z2W7); assay: Specificity test, calcium influx in hTRPM8 HEK293 cells; assay type: cell-based; conditions: FIG. 1
T3 construct: expressed in transfected cells; host or cells: HEK293 (line hTRPM8)
Description: as §1, §2

TRPC6 [1] = biological target: T4, TRPC6 (Homo sapiens, UniProt Q9Y210); assay: Calcium influx (fluo-4 [Ca2+]i) in TRPC6-expressing HEK293 cells; assay type: cell-based; conditions: 0.01 to 20 μM; activated with 50 μM OAG or GPCR agonist mix; FIG. 1
T4 construct: expressed in transfected cells
T4 sequence (Q9Y210 1-931): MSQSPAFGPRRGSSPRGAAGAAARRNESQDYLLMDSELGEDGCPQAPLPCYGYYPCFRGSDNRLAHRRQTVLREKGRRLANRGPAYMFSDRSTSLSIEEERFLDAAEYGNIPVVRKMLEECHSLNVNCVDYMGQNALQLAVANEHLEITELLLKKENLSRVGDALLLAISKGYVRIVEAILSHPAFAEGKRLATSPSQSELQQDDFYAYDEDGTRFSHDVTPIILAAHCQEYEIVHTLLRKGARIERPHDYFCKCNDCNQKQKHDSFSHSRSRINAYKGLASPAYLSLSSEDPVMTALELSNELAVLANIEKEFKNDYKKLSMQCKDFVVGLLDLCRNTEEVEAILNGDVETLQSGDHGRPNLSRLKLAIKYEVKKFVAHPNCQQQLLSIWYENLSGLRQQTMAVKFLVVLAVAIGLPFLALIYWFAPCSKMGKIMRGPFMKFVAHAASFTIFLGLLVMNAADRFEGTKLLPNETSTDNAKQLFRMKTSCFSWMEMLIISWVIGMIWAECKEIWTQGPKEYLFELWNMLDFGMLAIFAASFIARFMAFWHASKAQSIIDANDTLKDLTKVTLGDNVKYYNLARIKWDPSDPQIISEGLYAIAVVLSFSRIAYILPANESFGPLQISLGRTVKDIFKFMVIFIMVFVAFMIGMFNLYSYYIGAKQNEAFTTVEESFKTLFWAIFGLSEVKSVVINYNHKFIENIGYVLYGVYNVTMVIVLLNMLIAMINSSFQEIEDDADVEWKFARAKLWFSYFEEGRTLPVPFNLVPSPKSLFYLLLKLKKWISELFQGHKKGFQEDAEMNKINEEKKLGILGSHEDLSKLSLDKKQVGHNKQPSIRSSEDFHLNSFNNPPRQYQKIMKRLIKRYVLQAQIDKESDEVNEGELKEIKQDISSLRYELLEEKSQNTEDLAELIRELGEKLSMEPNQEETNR
Description: as §1, §2

human TRPM2 = biological target: T5, human TRPM2 (Homo sapiens, UniProt O94759); assay: Specificity test, calcium influx in hTRPM2 HEK293 cells; assay type: cell-based; conditions: activator 1 mM H2O2; FIG. 1
T5 construct: expressed in transfected cells; host or cells: HEK293 (line hTRPM2)
Description: as §1, §2

TRPC6 [2] = biological target: T4, TRPC6; assay: Electrophysiological whole-cell recordings of TRPC6-mediated current; assay type: cell-based
Description: FIG. 2 Larixol acetate acts from the outside of the cells. A: Electrophysiological whole-cell recordings were performed to determine the TRPC6-mediated current upon direct stimulation with 50 μM OAG or by activating heterotrimeric G-proteins with intracellularly applied AlF4 (50 μM), to trigger phospholipase C activation, resulting in the formation of endogenous diacylglycerols. To expose the cytosolic side of the channel protein to larixol acetate, larixol acetate was added to the intracellular solution (hatched bars and filled bars). Control solutions without larixol acetate (open bars) were measured in parallel.
TRPC6-expressing cells were seeded on glass coverslips, mounted onto the stage of an inverted microscope, and contacted with a borosilicate glass pipet filled with an intracellular solution. After reaching a gigaohm seal, the whole-cell configuration was obtained by gently applying a negative pressure at the pipet. Whole-cell currents were measured in the voltage clamped mode with a holding potential of −60 mV, and normalized for the cell size by dividing current amplitudes by the cellular capacitance (pA/pF). TRPC6 was activated either by adding OAG to the bath solution or by including 50 μM AlF4^− in the pipet solution.
In some experiments, the pipet solution was additionally supplemented with 1 μM larixol acetate to apply the modulator intracellularly (FIG. 2A, “inside”).

[3] = test system: hypoxia-induced pulmonary vasoconstriction (HPV); assay: Hypoxia-induced pulmonary vasoconstriction (HPV) in isolated perfused mouse lungs; assay type: in vivo; conditions: 5 μM in perfusion solution; isolated perfused C57BL/6 mouse lungs; 1% O2
Description: FIG. 4 Inhibition of hypoxia-induced pulmonary vasoconstriction (HPV) by larixol acetate.
To assess whether the TRPC6 blocking action of larixol acetate is potent to prevent HPV, larixol acetate was supplied in an induced mouse model of HPV.
Anesthetized, male adult C57BL/6 mice were subjected to tracheostomy, followed by volume-controlled normoxic ventilation. Midsternal thoracotomy was performed, and two cannulas (1 mm inner diameter) were inserted into the pulmonary artery and left atrium, respectively. Lungs were then perfused at a constant flow at 37° C. with a Hanks' Balanced Salt Solution (Sigma-Aldrich) containing 5% bovine serum albumin (Sigma-Aldrich) and 5% dextran (Sigma-Aldrich) at pH of 7.4. Indomethacin (30 μM) and N^G-nitro-L-arginine methylester (1 mM) were added to the perfusate to inhibit endogenous prostaglandin and nitric oxide synthesis.

lung edema formation = assay: Ischemia-reperfusion-associated lung edema formation, rabbit lung transplantation model; assay type: in vivo; conditions: 5 μM in Perfadex and Tyrode solutions, explanted rabbit lungs
Description: FIG. 5 Inhibition of ischemia-reperfusion-associated lung edema formation by larixol acetate. Rabbit lungs were explanted and extracorporally perfused with Perfadex solution and ventilated under oxygenized conditions (open symbols) or under hypoxic conditions (filled symbols). Lungs were then placed on ice for 2 h, and reperfused for 90 min with tyrode solution. Upper panel: control experiments without larixol acetate, lower panel: similar experiments, but with Perfadex® and tyrode solutions that were supplemented with 5 μM larixol acetate. Increases in the lung wet weight indicate edema formation. Data represent means and S.E.M. (Standard error of the mean) of 6 individual experiments for each treatment group.
To assess whether larixol acetate mediated TRPC6 block can prevent endothelial dysfunction, the effect of larixol acetate was tested on lung edema formation in a rabbit lung transplantation model.
New Zealand white rabbits were anesthetized and subjected to tracheostomy. Animals were mechanically ventilated with room air (40 breaths min^−1) The thorax was opened by midline sternotomy, pulmonary arteries and the left atrium were cannulated, the heart-lung-block was excised and transferred to a thermostatted artificial thorax chamber. […] The wet weight of the lungs was recorded during the whole procedure. […]

HEK293 cells = assay: Propidium iodide exclusion cytotoxicity assay; assay type: cell-based, human; conditions: concentrations up to 10 μM, 24 h incubation
Description: FIG. 3 Larixol and larixol acetate to not show a cytotoxic effect on HEK293 cells. The cellular integrity was determined by exclusion of the DNA-binding fluorescent dye propidium iodide (PI).
To assess possible cytotoxic effects of the larixol and larixol acetate, a propidium iodide exclusion assay was performed. Cells were grown in 24 well plates for 18 h and then incubated with the indicated compounds for another 24 h (FIG. 3). Propidium iodide (2 μg/ml, Invitrogen) was added, and the fluorescence (excitation at 544 nm and detection at 620 nm) was followed. To obtain a maximum reference value, 0.2% Triton X-100 was added to some samples prior to propidium iodide injection. The following controls were tested: • negative controls: HBS buffer (“control”), or 0.1% DMSO in HBS buffer, added to the growth medium in the same volume as for 10 μM larixol (“0.1% DMSO”). • positive controls: 2 μm staurosporine, 50 μm digitonin

T5 sequence (O94759 whole entry): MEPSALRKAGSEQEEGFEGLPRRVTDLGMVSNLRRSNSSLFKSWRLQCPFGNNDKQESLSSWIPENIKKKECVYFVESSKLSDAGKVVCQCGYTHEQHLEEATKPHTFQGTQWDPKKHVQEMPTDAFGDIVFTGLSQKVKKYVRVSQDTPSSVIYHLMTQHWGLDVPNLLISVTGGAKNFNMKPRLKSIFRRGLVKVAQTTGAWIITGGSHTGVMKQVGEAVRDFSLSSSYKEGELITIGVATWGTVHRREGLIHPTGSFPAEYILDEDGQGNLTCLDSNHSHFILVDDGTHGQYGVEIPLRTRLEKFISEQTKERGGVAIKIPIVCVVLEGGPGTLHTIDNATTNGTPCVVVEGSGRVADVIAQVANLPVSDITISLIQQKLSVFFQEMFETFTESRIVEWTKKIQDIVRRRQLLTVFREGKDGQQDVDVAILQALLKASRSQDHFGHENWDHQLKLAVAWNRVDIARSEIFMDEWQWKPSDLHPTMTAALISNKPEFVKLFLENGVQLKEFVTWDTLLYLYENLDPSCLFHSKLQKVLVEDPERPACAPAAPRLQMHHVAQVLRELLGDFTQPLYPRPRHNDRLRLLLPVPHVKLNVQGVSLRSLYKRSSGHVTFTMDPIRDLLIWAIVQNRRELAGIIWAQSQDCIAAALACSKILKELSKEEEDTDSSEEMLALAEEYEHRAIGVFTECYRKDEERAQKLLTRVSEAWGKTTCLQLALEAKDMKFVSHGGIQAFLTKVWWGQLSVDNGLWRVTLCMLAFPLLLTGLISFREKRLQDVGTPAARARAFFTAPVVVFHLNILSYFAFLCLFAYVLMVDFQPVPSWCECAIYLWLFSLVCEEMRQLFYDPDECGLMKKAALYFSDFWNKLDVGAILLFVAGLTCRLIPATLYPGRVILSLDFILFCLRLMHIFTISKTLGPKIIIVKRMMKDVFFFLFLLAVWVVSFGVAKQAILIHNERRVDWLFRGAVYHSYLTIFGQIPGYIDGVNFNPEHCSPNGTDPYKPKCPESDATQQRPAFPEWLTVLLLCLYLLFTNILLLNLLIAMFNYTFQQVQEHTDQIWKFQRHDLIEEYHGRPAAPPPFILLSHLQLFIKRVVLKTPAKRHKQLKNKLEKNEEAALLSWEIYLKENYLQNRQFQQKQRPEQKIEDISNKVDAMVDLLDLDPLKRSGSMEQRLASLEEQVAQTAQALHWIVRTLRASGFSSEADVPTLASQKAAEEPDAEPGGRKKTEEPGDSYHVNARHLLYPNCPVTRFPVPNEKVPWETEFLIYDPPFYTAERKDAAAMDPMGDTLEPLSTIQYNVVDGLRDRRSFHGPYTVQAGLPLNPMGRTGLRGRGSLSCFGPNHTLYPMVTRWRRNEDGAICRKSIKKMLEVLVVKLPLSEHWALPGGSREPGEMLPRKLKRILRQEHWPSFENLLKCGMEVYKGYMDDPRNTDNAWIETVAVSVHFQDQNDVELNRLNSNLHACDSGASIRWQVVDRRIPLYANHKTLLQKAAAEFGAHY
T2 sequence (O35433 whole entry): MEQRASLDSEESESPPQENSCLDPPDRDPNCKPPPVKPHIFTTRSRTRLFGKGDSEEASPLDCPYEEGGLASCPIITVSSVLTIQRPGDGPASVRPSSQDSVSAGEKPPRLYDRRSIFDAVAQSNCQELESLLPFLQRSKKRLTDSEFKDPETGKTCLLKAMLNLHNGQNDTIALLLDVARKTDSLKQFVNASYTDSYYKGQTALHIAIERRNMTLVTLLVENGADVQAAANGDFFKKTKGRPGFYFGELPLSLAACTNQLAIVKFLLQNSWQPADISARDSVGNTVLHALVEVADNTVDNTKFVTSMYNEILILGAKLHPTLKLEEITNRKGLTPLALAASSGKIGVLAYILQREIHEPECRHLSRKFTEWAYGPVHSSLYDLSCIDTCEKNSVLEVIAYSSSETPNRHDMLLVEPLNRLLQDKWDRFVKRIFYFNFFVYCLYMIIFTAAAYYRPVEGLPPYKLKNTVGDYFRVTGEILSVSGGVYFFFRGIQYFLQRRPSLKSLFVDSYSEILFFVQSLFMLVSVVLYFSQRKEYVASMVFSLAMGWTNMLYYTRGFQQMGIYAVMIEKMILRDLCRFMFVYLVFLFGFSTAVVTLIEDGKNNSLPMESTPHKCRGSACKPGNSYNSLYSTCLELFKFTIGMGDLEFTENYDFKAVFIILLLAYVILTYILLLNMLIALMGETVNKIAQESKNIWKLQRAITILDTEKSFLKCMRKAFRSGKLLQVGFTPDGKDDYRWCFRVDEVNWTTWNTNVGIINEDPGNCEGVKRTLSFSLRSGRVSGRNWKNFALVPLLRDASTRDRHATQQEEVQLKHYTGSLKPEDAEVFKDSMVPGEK
T1 sequence (Q9HCF6 whole entry): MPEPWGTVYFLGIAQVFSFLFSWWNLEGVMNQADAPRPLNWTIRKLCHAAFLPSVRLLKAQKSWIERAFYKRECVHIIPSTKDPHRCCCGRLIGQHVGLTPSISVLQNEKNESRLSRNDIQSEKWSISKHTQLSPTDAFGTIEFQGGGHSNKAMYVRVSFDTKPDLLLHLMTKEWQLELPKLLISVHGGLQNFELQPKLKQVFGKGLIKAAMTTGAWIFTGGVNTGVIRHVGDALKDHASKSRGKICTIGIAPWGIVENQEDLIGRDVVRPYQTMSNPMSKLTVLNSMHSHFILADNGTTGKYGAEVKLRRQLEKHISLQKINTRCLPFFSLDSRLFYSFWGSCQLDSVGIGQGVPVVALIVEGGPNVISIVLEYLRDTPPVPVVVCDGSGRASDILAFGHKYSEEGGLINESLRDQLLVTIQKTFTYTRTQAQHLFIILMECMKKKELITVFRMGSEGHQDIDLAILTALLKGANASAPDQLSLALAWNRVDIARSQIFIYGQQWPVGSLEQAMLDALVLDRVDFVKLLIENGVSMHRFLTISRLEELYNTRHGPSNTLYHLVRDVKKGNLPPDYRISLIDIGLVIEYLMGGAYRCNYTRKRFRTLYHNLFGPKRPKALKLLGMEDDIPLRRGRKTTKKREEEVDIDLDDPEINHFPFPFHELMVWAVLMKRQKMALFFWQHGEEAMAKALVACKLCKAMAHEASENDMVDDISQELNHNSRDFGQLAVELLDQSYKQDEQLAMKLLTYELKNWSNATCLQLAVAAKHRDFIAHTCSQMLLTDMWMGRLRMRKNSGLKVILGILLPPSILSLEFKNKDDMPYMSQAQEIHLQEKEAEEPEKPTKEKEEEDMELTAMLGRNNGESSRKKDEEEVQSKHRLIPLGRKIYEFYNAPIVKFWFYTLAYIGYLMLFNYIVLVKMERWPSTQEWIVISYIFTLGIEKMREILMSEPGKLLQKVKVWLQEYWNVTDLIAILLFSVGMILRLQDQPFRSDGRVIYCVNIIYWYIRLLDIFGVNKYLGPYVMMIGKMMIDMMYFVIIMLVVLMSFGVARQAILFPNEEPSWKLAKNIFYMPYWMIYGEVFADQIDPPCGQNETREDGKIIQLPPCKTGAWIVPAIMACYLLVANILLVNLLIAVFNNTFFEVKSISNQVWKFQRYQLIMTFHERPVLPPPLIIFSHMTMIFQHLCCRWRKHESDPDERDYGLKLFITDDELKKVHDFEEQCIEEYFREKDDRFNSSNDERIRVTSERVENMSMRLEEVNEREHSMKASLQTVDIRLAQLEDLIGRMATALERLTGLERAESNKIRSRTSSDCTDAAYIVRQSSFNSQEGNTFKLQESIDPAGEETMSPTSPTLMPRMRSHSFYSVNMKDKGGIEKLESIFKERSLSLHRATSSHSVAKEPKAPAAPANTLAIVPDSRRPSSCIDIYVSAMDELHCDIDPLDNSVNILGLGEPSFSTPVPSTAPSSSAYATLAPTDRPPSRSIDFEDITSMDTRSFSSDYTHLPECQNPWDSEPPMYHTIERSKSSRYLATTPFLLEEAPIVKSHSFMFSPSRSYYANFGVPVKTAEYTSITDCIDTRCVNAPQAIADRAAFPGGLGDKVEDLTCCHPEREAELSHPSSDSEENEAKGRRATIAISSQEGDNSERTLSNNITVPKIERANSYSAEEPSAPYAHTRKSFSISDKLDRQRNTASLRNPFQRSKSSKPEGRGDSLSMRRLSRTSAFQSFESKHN

Molecule	effect on TRPM3 (human TRPM3)	inhibition of other TRP channels (other TRP channels)	effect on TRPV1 (rat TRPV1)	effect on TRPM8 (human TRPM8)	inhibition of calcium influx via TRPC6 (TRPC6 [1])	effect on TRPM2 (human TRPM2)	suppression of OAG- or AlF4-induced TRPC6 activation, intracellular exposure (inside, pipet solution) (TRPC6 [2]; 1 μM in pipet solution)	block of TRPC6 whole-cell current, blocker applied via the bath solution (outside) (TRPC6 [2]; 1 μM, OAG or AlF4- activation, holding potential -60 mV)	hypoxia-induced increase in pulmonary artery pressure (PAP) [3]	increase in lung wet weight (edema formation) under hypoxic treatment (lung edema formation)	cytotoxic effect (propidium iodide exclusion) (HEK293 cells)
C=C[C@@](C)(O)CC[C@H]1C(=C)C[C@H](O)[C@H]2C(C)(C)CCC[C@]12C [larixol]	not affected	not, or only poorly, inhibited	not affected	not affected	selectively inhibit calcium influx via TRPC6	not affected	–	–	–	–	–
larixol acetate	not affected	not, or only poorly, inhibited	not affected	not affected	selectively inhibit calcium influx via TRPC6	not affected	not sufficient to suppress	efficient block	completely abrogated	prevented the increase in lung wet weight	no cytotoxic effect
